“And” between values parts separate entries of the source, which are not always exact repeats. Equal values may be shown once.
Legend:
Format in all cases: in vivo
Conditions in all cases: no safener
Wheat (Triso) [1] = assay: Pre-emergence herbicidal effect and safener effect on wheat, visual scoring in greenhouse
Description: (§1) Seeds or rhizome pieces of mono- and dicotyledonous weed plants and crop plants are planted in peat pots in sandy loam and covered with earth. The herbicide/safener active ingredient combinations according to the invention, formulated as water-soluble powders or suspensions, and, in parallel experiments, the correspondingly formulated individual active ingredients were then applied to the surface of the covering earth at an application rate of 600 to 800 I of water/ha (converted) in a variety of dosages.
(§2) After the treatment, the pots were placed in the greenhouse and kept under good growth conditions for the weeds and the crop plants. Visual scoring of the plant damage or emergence damage was carried out after the test plants had emerged after a test period of 2 to 4 weeks, in comparison with untreated controls.

Wheat (Triso) [2] = assay: Post-emergence herbicidal effect and safener effect on wheat, visual scoring in greenhouse
Experimental: (§3) Seeds or rhizome pieces of mono- and dicotyledonous harmful plants and of crop plants are planted in peat pots in sandy loam, covered with earth and grown in a greenhouse under good growth conditions. Alternatively to this, harmful plants occurring in the paddy rice cultivation are cultivated in pots in which water comes to 2 cm above the soil surface. 10 to 20 days after sowing, the test plants are treated in the one-to three-leaf stage. The herbicide/safener active ingredient combinations according to the invention, formulated as water-soluble powders or suspensions, and, in parallel experiments, the correspondingly formulated individual active ingredients are sprayed onto the green plant parts in various dosages using an application rate of 300 I of water/ha (converted) and, after the test plants have remained in the greenhouse under optimum growth conditions for 2-3 weeks, the effect of the preparations is scored visually in comparison with untreated controls. In the case of rice or in the case of harmful plants which occur in the rice cultivation, the active ingredients are also placed directly into the irrigation water (application analogous to the so-called granules application) or sprayed onto plants and into the irrigation water.

Corn (Aventura) [3] = assay: Pre-emergence herbicidal effect and safener effect on corn, visual scoring in greenhouse
Description: as §1, §2

Corn (Aventura) [4] = assay: Post-emergence herbicidal effect and safener effect on corn, visual scoring in greenhouse
Experimental: as §3

Rice (Ballila) = assay: Post-emergence herbicidal effect and safener effect on rice, visual scoring in greenhouse
Experimental: as §3

Structure (SMILES) | % effect (without safener) (Wheat (Triso) [1]; herbicide 25 g a.i./ha) | % effect (without safener) (Corn (Aventura) [3]; herbicide 50 g a.i./ha) | % effect (without safener) (Wheat (Triso) [2]; herbicide 25 g a.i./ha) | % effect (without safener) (Corn (Aventura) [4]; herbicide 25 g a.i./ha) | other results
Nc1nc(C2CC2)nc(C(=O)O)c1Cl [Compound I-1, 6-amino-5-chloro-2-cyclopropyl-4-pyrimidinecarboxylic acid] | 30% |  |  |  | % effect (without safener) (Wheat (Triso) [2]; herbicide 50 g a.i./ha): 20%; % effect (without safener) (Corn (Aventura) [3]; herbicide 100 g a.i./ha): 50%
CCOC(=O)c1nc(C2CC2)nc(N)c1Cl [Compound I-3, ethyl 6-amino-5-chloro-2-cyclopropyl-4-pyrimidinecarboxylate] |  | 20% and 25% |  |  | % effect (without safener) (Corn (Aventura) [4]; herbicide 50 g a.i./ha): 60%; % effect (without safener) (Rice (Ballila); herbicide 25 g a.i./ha): 60%
Nc1nc(-c2ccc(Cl)cc2)nc(C(=O)O)c1Cl [Compound I-109, 6-amino-5-chloro-2-(4-chlorophenyl)-4-pyrimidinecarboxylic acid] | 20% |  | 30% | 60% | % effect (without safener) (Corn (Aventura) [3]; herbicide 25 g a.i./ha): 20%
Nc1nc(C2CC2)nc(C(=O)[O-])c1Cl.[K+] [Compound I-163, potassium salt of 6-amino-5-chloro-2-cyclopropyl-4-pyrimidinecarboxylic acid] |  | 50% | 10% | 20% | % effect (without safener) (Wheat (Triso) [1]; herbicide 50 g a.i./ha): 20%
Nc1nc(C2CC2)nc(C(=O)[O-])c1Cl.[Na+] [Compound I-164, 6-amino-5-chloro-2-cyclopropyl-4-pyrimidinecarboxylic acid sodium salt] | 10% |  | 20% |  | % effect (without safener) (Rice (Ballila); herbicide 25 g a.i./ha, sodium salt): 10% and 20%; % effect (without safener) (Rice (Ballila); herbicide 50 g a.i./ha): 20%

Reference: US20100137139A1, “HERBICIDE/SAFENER COMBINATION” (BAYER CROPSCIENCE AG, priority 2008, published 2010)
